Assay [1] concerns Aspergillus fumigatus. Kind of assay: Antimicrobial activity against Aspergillus fumigatus AF293 infected in hartley guinea pig assessed as time to death at 10 mg/kg, po BID for 8 days postinfection. It counts as functional. As to conditions: AF293, in Cavia porcellus, 192 h.
Assay [2] has as its system Aspergillus fumigatus. Nature of the assay: Antimicrobial activity against Aspergillus fumigatus AF293 infected in hartley guinea pig assessed as survival rate at 10 mg/kg, po BID for 8 days postinfection. It is filed as functional.
The test system of assay [3] is Aspergillus fumigatus. Kind of assay: Antimicrobial activity against Aspergillus fumigatus AF293 infected in hartley guinea pig assessed as decreased fungal burden in lung at 10 mg/kg, po BID after 4 to 6 days postinfection. It is filed as functional, organism-based. Also on record: dose 10 mg/kg.
Assay [4] deals with Aspergillus fumigatus. Kind of assay: Antimicrobial activity against Aspergillus fumigatus AF293 infected in hartley guinea pig assessed as decreased fungal burden in lung at 10 mg/kg, po BID for 8 days postinfection. It is filed as functional, organism-based. On the set-up: dose 10 mg/kg.
The subject of assay [5] is Aspergillus fumigatus. Nature of the assay: Antimicrobial activity against Aspergillus fumigatus AF293 infected in hartley guinea pig assessed as log reduction in […] fungal burden at 10 mg/kg, po BID after 4 to 7 days postinfection. It is filed as functional.

Calls of active or inactive are those of the source. The calls are words filed in the database; no cut-off is given here.

Regarding `C[C@@H](c1ncncc1F)[C@](O)(Cn1cncn1)c1ccc(F)cc1F` [VORICONAZOLE], the survival at 10 mg/kg in the assay with Aspergillus fumigatus [1] is 62.5%. Also, in the assay on Aspergillus fumigatus [2], the Survival came out at 9.13 days. Besides, the result in the assay on Aspergillus fumigatus [3] and with Aspergillus fumigatus [4] was Active. In the assay on Aspergillus fumigatus [5], the FC turned out to be 2.98.
